Counter-ions that a name gives are not always drawn.
What follows are compounds tested against T1, RIPK1 (Homo sapiens, UniProt Q13546) (assay: RIPK1-ADP-Glo enzymatic assay). Details: ADP-Glo luminescent ADP detection; 25 nM GST-RIPK1 kinase domain (residues 1-327), 300 μM ATP, dephosphorylated-MBP substrate; 30 min pre-incubation, 150 min reaction.
T1 construct: recombinant GST-RIPK1 kinase domain (residues 1-327) enzyme produced from baculovirus-transfected Sf21 cells; host or cells: baculovirus-transfected Sf21 insect cells
T1 sequence (Q13546 1-327): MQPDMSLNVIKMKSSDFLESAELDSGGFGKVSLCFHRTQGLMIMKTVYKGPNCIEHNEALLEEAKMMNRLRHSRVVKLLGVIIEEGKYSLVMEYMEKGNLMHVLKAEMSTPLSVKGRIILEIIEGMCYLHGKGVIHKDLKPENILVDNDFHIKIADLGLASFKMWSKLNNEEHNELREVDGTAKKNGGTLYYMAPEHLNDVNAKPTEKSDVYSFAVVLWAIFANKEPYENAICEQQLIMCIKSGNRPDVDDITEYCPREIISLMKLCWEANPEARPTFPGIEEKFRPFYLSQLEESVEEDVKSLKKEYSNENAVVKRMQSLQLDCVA
Format: biochemical
Method: RIPK1-ADP-Glo Enzymatic Assay
The enzymatic activity of RIPK1 is measured using an assay derived from ADP-Glo kit (Promega™), which provides a luminescent-based ADP detection system. Specifically, the ADP generated by RIPK1 kinase is proportionally detected as luminescent signals in a homogenous fashion. In this context, the assessment of the inhibitory effect of small molecules (EC50) is measured by the effectiveness of the compounds to inhibit the ATP to ADP conversion by RIPK1.
In this assay, the potency (EC50) of each compound was determined from a ten-point (1:3 serial dilution; top compound concentration of 100000 nM) titration curve using the following outlined procedure. To each well of a white ProxiPlus 384 well-plate, 30 nL of compound (1% DMSO in final assay volume of 3 μL) was dispensed, followed by the addition of 2 μL of 1×assay buffer (25 mM Hepes 7.3, 20 mM MgCl2, 50 mM NaCl, 1 mM DTT, 0.005% Tween20, and 0.02% BSA) containing 37.5 nM of GST-RIPK1 (recombinant GST-RIPK1 kinase domain (residues 1-327) enzyme produced from baculovirus-transfected Sf21 cells: MW=62 kDa). Plates were placed in an ambient temperature humidified chamber for a 30 minutes pre-incubation with compound. Subsequently, each reaction was initiated by the addition of 1 μL 1×assay buffer containing 900 μM ATP and […] dephosphorylated-MBP substrate. The final reaction in each well of 3 μL consists of 25 nM of GST-RIPK1, 300 μM ATP, and 3 μM dephosphorylated-MBP. Kinase reactions were allowed to proceed for 150 minutes prior to adding ADP-Glo reagents per Promega's outlined kit protocol. Dose-response curves were generated by plotting percent effect (% product conversion; Y-axis) vs. Log10 compound concentrations (X-axis). EC50 values were calculated using a non-linear regression, four-parameters sigmoidal dose-response model.

Point of comparison: N#Cc1ccc(OC2CN(C(=O)N3N=CC[C@H]3c3cc(F)cc(F)c3)C2)cn1 [Example 1.61, (S)-5-((1-(5-(3,5-difluorophenyl)-4,5-dihydro-1H-pyrazole-1-carbonyl)azetidin-3-yl)oxy)picolinonitrile], EC50 26.3 nM. Against it:
- CS(=O)(=O)C1CN(C(=O)N2N=CC[C@H]2c2cc(F)cc(F)c2)C1 [Example 1.54, (S)-(5-(3,5-difluorophenyl)-4,5-dihydro-1H-pyrazol-1-yl)(3-(methylsulfonyl)azetidin-1-yl)methanone] — 160-fold higher, 4230 nM
- Cc1noc(C2CN(C(=O)N3N=CC[C@H]3c3cc(F)cc(F)c3)C2)n1 [Example 1.55, (S)-(5-(3,5-difluorophenyl)-4,5-dihydro-1H-pyrazol-1-yl)(3-(3-methyl-1,2,4-oxadiazol-5-yl)azetidin-1-yl)methanone] — 6.7-fold higher, 175 nM
- O=C(N1CC(S(=O)(=O)c2ccc(Br)cc2)C1)N1N=CC[C@H]1c1cc(F)cc(F)c1 [Example 1.57, (S)-(3-((4-bromophenyl)sulfonyl)azetidin-1-yl)(5-(3,5-difluorophenyl)-4,5-dihydro-1H-pyrazol-1-yl)methanone] — 2.1-fold lower, 12.4 nM
- O=C(N1CC(Oc2ccccn2)C1)N1N=CC[C@H]1c1cc(F)cc(F)c1 [Example 1.58, (S)-(5-(3,5-difluorophenyl)-4,5-dihydro-1H-pyrazol-1-yl)(3-(pyridin-2-yloxy)azetidin-1-yl)methanone] — 52-fold higher, 1380 nM
- O=C(N1CC(OC2CCCCC2)C1)N1N=CC[C@H]1c1cc(F)cc(F)c1 [Example 1.59, (S)-(3-(cyclohexyloxy)azetidin-1-yl)(5-(3,5-difluorophenyl)-4,5-dihydro-1H-pyrazol-1-yl)methanone] — 9.3-fold higher, 245 nM
- O=C(N1CCC1)N1N=CC[C@H]1c1cc(F)cc(F)c1 [Example 1.60, (S)-azetidin-1-yl(5-(3,5-difluorophenyl)-4,5-dihydro-1H-pyrazol-1-yl)methanone] — 2.5-fold higher, 64.5 nM
- COC1CN(C(=O)N2N=CC[C@H]2c2cc(F)cc(F)c2)C1 [Example 2.1, (S)-(5-(3,5-difluorophenyl)-4,5-dihydro-1H-pyrazol-1-yl)(3-methoxyazetidin-1-yl)methanone] — 2.4-fold lower, 11 nM
- CCOC1CN(C(=O)N2N=CC[C@H]2c2cc(F)cc(F)c2)C1 [Example 2.2, (S)-(5-(3,5-difluorophenyl)-4,5-dihydro-1H-pyrazol-1-yl)(3-ethoxyazetidin-1-yl)methanone] — within 1.5-fold, 27.2 nM
- O=C(N1CC(Nc2ccccc2)C1)N1N=CC[C@H]1c1cc(F)cc(F)c1 [Example 2.3, (S)-(5-(3,5-difluorophenyl)-4,5-dihydro-1H-pyrazol-1-yl)(3-(phenylamino)azetidin-1-yl)methanone] — 3.9-fold lower, 6.7 nM
- O=C(N1CC(Oc2ccccc2)C1)N1N=CC[C@H]1c1ccc(Cl)cc1 [Example 2.6, (S)-(5-(4-chlorophenyl)-4,5-dihydro-1H-pyrazol-1-yl)(3-phenoxyazetidin-1-yl)methanone] — 2.7-fold lower, 9.6 nM
- CC(C)C1(O)CN(C(=O)N2N=CC[C@H]2c2ccc(Cl)cc2)C1 [Example 2.7, (S)-(5-(4-chlorophenyl)-4,5-dihydro-1H-pyrazol-1-yl)(3-hydroxy-3-isopropylazetidin-1-yl)methanone] — 200-fold higher, 5160 nM
- O=C(N1CC(O)(c2ccccc2)C1)N1N=CC[C@H]1c1ccc(Cl)cc1 [Example 2.8, (S)-(5-(4-chlorophenyl)-4,5-dihydro-1H-pyrazol-1-yl)(3-hydroxy-3-phenylazetidin-1-yl)methanone] — 92-fold higher, 2430 nM
- O=C(N1CC(Nc2ccccc2)C1)N1N=CC[C@H]1c1ccc(Cl)cc1 [Example 2.9, (S)-(5-(4-chlorophenyl)-4,5-dihydro-1H-pyrazol-1-yl)(3-(phenylamino)azetidin-1-yl)methanone] — within 1.5-fold, 22.7 nM
- O=C(N1CC(Cc2ccccc2)C1)N1N=CC[C@H]1c1ccc(Cl)cc1 [Example 2.10, (S)-(3-benzylazetidin-1-yl)(5-(4-chlorophenyl)-4,5-dihydro-1H-pyrazol-1-yl)methanone] — 2.3-fold lower, 11.4 nM
- O=C(N1CC(O)(C(F)(F)F)C1)N1N=CC[C@H]1c1ccc(Cl)cc1 [Example 2.11, (S)-(5-(4-chlorophenyl)-4,5-dihydro-1H-pyrazol-1-yl)(3-hydroxy-3-(trifluoromethyl)azetidin-1-yl)methanone] — 22-fold higher, 578 nM
- CC(C)OC1CN(C(=O)N2N=CC[C@H]2c2ccc(Cl)cc2)C1 [Example 2.12, (S)-(5-(4-chlorophenyl)-4,5-dihydro-1H-pyrazol-1-yl)(3-isopropoxyazetidin-1-yl)methanone] — 2.5-fold lower, 10.6 nM
- COC1(C)CN(C(=O)N2N=CC[C@H]2c2ccc(Cl)cc2)C1 [Example 2.13, (S)-(5-(4-chlorophenyl)-4,5-dihydro-1H-pyrazol-1-yl)(3-methoxy-3-methylazetidin-1-yl)methanone] — 2.5-fold higher, 64.9 nM
- O=C(N1CC(Oc2ccccc2)C1)N1N=CC[C@H]1c1cccnc1 [Example 2.14, (S)-(3-phenoxyazetidin-1-yl)(5-(pyridin-3-yl)-4,5-dihydro-1H-pyrazol-1-yl)methanone] — within 1.5-fold, 20.5 nM
- O=C(N1CC(Oc2ccccc2)C1)N1N=CC[C@@H]1c1cccnc1 [Example 2.15, (R)-(3-phenoxyazetidin-1-yl)(5-(pyridin-3-yl)-4,5-dihydro-1H-pyrazol-1-yl)methanone] — 3.6-fold higher, 95.6 nM
- O=C(N1CC(Oc2ccccc2)C1)N1N=CC[C@H]1C12CCC(CC1)C2 [Example 2.16, ((5S)-5-(bicyclo[2.2.1]heptan-1-yl)-4,5-dihydro-1H-pyrazol-1-yl)(3-phenoxyazetidin-1-yl)methanone] — 3.5-fold higher, 92.7 nM
- CN(c1ccccc1)C1CN(C(=O)N2N=CC[C@H]2c2cc(F)cc(F)c2)C1 [Example 2.17, (S)-(5-(3,5-difluorophenyl)-4,5-dihydro-1H-pyrazol-1-yl)(3-(methyl(phenyl)amino)azetidin-1-yl)methanone, TFA salt] — 3.7-fold lower, 7.1 nM
- C[C@H]1[C@@H](Oc2ccc(F)cc2)CN1C(=O)N1N=CC[C@H]1c1cncc(F)c1 [Example 2.18, ((2S,3S)-3-(4-fluorophenoxy)-2-methylazetidin-1-yl)((S)-5-(5-fluoropyridin-3-yl)-4,5-dihydro-1H-pyrazol-1-yl)methanone] — 2.6-fold lower, 10 nM
- Cc1ncc([C@@H]2CC=NN2C(=O)N2C[C@H](Oc3ccc(F)cc3)[C@@H]2C)cc1F [Example 2.19, ((S)-5-(5-fluoro-6-methylpyridin-3-yl)-4,5-dihydro-1H-pyrazol-1-yl)((2S,3S)-3-(4-fluorophenoxy)-2-methylazetidin-1-yl)methanone] — 2.1-fold lower, 12.3 nM
- C[C@@H]1[C@H](Oc2ccc(F)cc2)CN1C(=O)N1N=CC[C@H]1c1ccc(Cl)cc1 [Example 2.20, ((S)-5-(4-chlorophenyl)-4,5-dihydro-1H-pyrazol-1-yl)((2R,3R)-3-(4-fluorophenoxy)-2-methylazetidin-1-yl)methanone] — within 1.5-fold, 25.7 nM
- C[C@@H]1[C@H](Oc2ccc(F)cc2)CN1C(=O)N1N=CC[C@H]1c1cc(F)cc(F)c1 [Example 2.21, ((S)-5-(3,5-difluorophenyl)-4,5-dihydro-1H-pyrazol-1-yl)((2R,3R)-3-(4-fluorophenoxy)-2-methylazetidin-1-yl)methanone] — within 1.5-fold, 39.1 nM
- C[C@@H]1[C@@H](Oc2ccc(F)cc2)CN1C(=O)N1N=CC[C@H]1c1cncc(F)c1 [Example 2.22, ((2R,3S)-3-(4-fluorophenoxy)-2-methylazetidin-1-yl)((S)-5-(5-fluoropyridin-3-yl)-4,5-dihydro-1H-pyrazol-1-yl)methanone] — 3.5-fold lower, 7.6 nM

From patent US20230265094A1, “RIPK1 INHIBITORS AND METHODS OF USE” (Merck Sharp & Dohme LLC, priority 2020, published 2023)
